The text below walks through data of patent US20110129871A1, “CULTURE MEDIUM ENABLING STAPHYLOCOCCUS AUREUS TO BE DIFFERENTIATED FROM COAGULASE-NEGATIVE STAPHYLOCOCCI” (priority 2008, published 2011).

The target in one experiment is T1, PIPLC (Staphylococcus aureus, UniProt P45723).
T1 construct: endogenous in cells; host or cells: 19 Staphylococcus aureus ATCC strains (e.g. ATCC 9144, ATCC 49775) growing in culture medium
Put plainly: PIPLC activity of Staphylococcus aureus strains in microplates with two fluorogenic PIPLC substrates. The class given is cell-based. Also noted: key to PIPLC activity: +: strains permitting the production of fluorescence at least twice that of the background noise; −: a signal emitted by the medium that is less than the background noise. The settings on record: microplate, 24 hours at 37° C.; for number of strains that display PIPLC activity in the presence of the substrate: among the nineteen strains of Staphylococcus aureus ATCC tested; for PIPLC activity: substrate 0.4 g/l (4-methylumbelliferyl) or 0.2 g/l (3-chloro) in medium derived from OAA. The procedure:
19 strains of Staphylococcus aureus ATCC are tested for their PIPLC activity in microplates. The tests are performed with two different fluorogenic substrates of PIPLC: 4-methylumbelliferyl-myo-inositol-1-phosphate and 3-chloro-7-hydroxy-4-methylcoumarin myo-inositol-phosphate, added at different concentrations to the constituents of the medium derived from the OAA medium described in example 1.
The strains tested, at an initial concentration of 10^8 (CFU)/ml, are diluted in a tryptone salt broth, so as to obtain a final concentration at 10^3 CFU/ml.
10 μl of this bacterial suspension is added to 200 μl of culture medium. Each strain was incubated for 24 hours at 37° C. with each of the media in the microplate reader marketed by the company TECAN under the name GENios™.
The + signs correspond to the strains permitting the production of fluorescence at least twice that of the background noise, The − signs correspond to a signal emitted by the medium that is less than the background noise.

A further experiment concerns PC-PLC (lecithinase). The settings on record: strains ATCC 33592 and ATCC 700699, 10 CFU per well; 0.4 g/l substrate, pH 7.2, 37° C., 72h, versus uninoculated control medium (FIG. 1).

T1 sequence (P45723 27-312): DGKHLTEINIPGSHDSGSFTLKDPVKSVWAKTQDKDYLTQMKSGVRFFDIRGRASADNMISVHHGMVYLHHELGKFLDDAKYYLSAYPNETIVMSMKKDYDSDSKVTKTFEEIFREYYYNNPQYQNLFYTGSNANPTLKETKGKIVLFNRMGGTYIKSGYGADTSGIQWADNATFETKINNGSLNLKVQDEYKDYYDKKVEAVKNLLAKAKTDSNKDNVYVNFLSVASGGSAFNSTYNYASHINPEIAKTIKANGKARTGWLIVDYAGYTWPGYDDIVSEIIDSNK
Protocol for PC-PLC (lecithinase): The dynamics of the PC-PLC activity of two strains of Staphylococcus aureus ATCC 33592 and ATCC 700699 was evaluated in microplates in the presence of the medium given below. Reading of the appearance of fluorescence in each of the various wells of the microplate was then carried out in kinetic conditions.
The medium used is of the following composition, pH 7.2:
10 CFU of Staphylococcus aureus ATCC 33592 and ATCC 700699 were inoculated in the wells of the microplate in the presence of the medium described above. The microplate was then incubated at 37° C. in a TECAN reader to evaluate the PC-PLC activity of the two strains of Staphylococcus aureus in the form of the kinetics of hydrolysis of the 4MU-CP substrate, i.e. appearance of fluorescence.
Measurement of the appearance of fluorescence following hydrolysis of the 4MU-CP substrate was carried out over an incubation time of 72h for the two strains of Staphylococcus aureus tested (STA ATCC 33592 and STA ATCC 700699) versus the uninoculated control medium (baseline).

For `Cc1c(Cl)c(=O)oc2cc(OP(=O)([O-])OC3C(O)C(O)C(O)C(O)C3O)ccc12.[Li+]` (centres unmarked) [3-Chloro-7-hydroxy-4-methylcoumarin myo-inositol-1-phosphate], the “number of strains that display PIPLC activity in the presence of the substrate” value at PIPLC was 18. In addition, the PIPLC activity result on PIPLC (strain ATCC 6538), on PIPLC (strain ATCC 9144), at PIPLC (strain ATCC 12598), on PIPLC (strain ATCC 13150), at PIPLC (strain ATCC 29213) and on PIPLC (strain ATCC 33591) was “+ (strains permitting the production of fluorescence at least twice that of the background noise)” in each case. The PIPLC activity result at PIPLC (strain ATCC 33592) is “+ (strains permitting the production of fluorescence at least twice that of the background noise)”; at PIPLC (strain ATCC 33593) it was “+ (strains permitting the production of fluorescence at least twice that of the background noise)”; at PIPLC (strain ATCC 33862) it was “+ (strains permitting the production of fluorescence at least twice that of the background noise)”; at PIPLC (strain ATCC 43300) it was “+ (strains permitting the production of fluorescence at least twice that of the background noise)”; on PIPLC (strain ATCC 43866) it was “+ (strains permitting the production of fluorescence at least twice that of the background noise)”; on PIPLC (strain ATCC 49775), “−”. Moreover, the PIPLC activity entry at PIPLC (strain ATCC 51153), at PIPLC (strain ATCC 51740), on PIPLC (strain ATCC 700698), at PIPLC (strain ATCC 700699), at PIPLC (strain ATCC 700788) and at PIPLC (strain ATCC 700789) was “+ (strains permitting the production of fluorescence at least twice that of the background noise)” each time. Moreover, on PIPLC (strain CCM 6188), the PIPLC activity entry was “+ (strains permitting the production of fluorescence at least twice that of the background noise)”.
With `Cc1cc(=O)oc2cc(OP(=O)(O)OC3C(O)C(O)C(O)C(O)C3O)ccc12` (centres unmarked) [4-Methylumbelliferyl myo-inositol-1-phosphate], the “number of strains that display PIPLC activity in the presence of the substrate” value at PIPLC is given as 17. For the same molecule, the PIPLC activity result on PIPLC (strain ATCC 6538), on PIPLC (strain ATCC 9144), at PIPLC (strain ATCC 12598), at PIPLC (strain ATCC 13150), on PIPLC (strain ATCC 29213) and at PIPLC (strain ATCC 33591) was “+ (strains permitting the production of fluorescence at least twice that of the background noise)” in each case. Besides, the PIPLC activity result at PIPLC (strain ATCC 33592) is given as “+ (strains permitting the production of fluorescence at least twice that of the background noise)”; at PIPLC (strain ATCC 33593) it was “+ (strains permitting the production of fluorescence at least twice that of the background noise)”; at PIPLC (strain ATCC 33862) it was “+ (strains permitting the production of fluorescence at least twice that of the background noise)”; on PIPLC (strain ATCC 43300), “+ (strains permitting the production of fluorescence at least twice that of the background noise)”; on PIPLC (strain ATCC 43866), “+ (strains permitting the production of fluorescence at least twice that of the background noise)”; on PIPLC (strain ATCC 49775), “−”. For the same molecule, the PIPLC activity entry on PIPLC (strain ATCC 51153), on PIPLC (strain ATCC 51740), on PIPLC (strain ATCC 700698), at PIPLC (strain ATCC 700699), at PIPLC (strain ATCC 700788) and at PIPLC (strain ATCC 700789) was “+ (strains permitting the production of fluorescence at least twice that of the background noise)” in each case. On PIPLC (strain CCM 6188), the PIPLC activity result was “−”.
Turning to `Cc1cc(=O)oc2cc(OP(=O)([O-])OCC[N+](C)(C)C)ccc12` [4MU-CP, 4-Methylumbelliferyl choline-phosphate], in the experiment on PC-PLC (lecithinase), the “detection of Staphylococcus aureus by hydrolysis of the fluorogenic PC-PLC substrate (appearance of fluorescence)” value is “permits the detection and discrimination of Staphylococcus aureus”.
